Test results published in publication PMC9889419 (Pharmacological Reports, 2022).
Like-named read-outs stand apart in the source and are kept apart here. Marks after values point to notes of the source that are not given here.

What was measured:
[1] = test system: rats; test: Maximal electroshock seizure (MES) test; format: in vivo; conditions: ip
[2] = test system: mice; test: 6 Hz test; format: in vivo; conditions: 44 mA, mice
Procedure: The 6 Hz model test was carried out according to the protocol originally described by Brown et al. [54] and more recently by Barton et al. [55] and Kamiński et al. [47] and is a model of pharmacoresistant epilepsy [56].

[3] = test system: mice; test: Corneal kindling; format: in vivo; conditions: at 25 mg/kg, […], ip
[4] = test system: rats; format: in vivo; conditions: ip
[5] = test system: rats; format: in vivo; conditions: ip, at 40 mg/kg
[6] = test system: mice; test: Rotarod test (neurotoxicity); format: in vivo; conditions: mice;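 further: in vivo neurotoxicity screen run within the NIH Epilepsy Therapy Screening Program (ETSP, formerly Anticonvulsant Screening Program)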
Procedure: (§3) The assays were carried out within the Epilepsy Therapy Screening Program (ETSP, previously known as the Anticonvulsant Screening Program, ASP), Epilepsy Branch, National Institute of Neurological and Communicative Disorders and Stroke, National Institutes of Health in Rockville, MD, USA [23].
(§4) The obtained compounds were screened for antiseizure activity and neurotoxicity in vivo within the Epilepsy Therapy Screening Program (ETSP, previously known as the Anticonvulsant Screening Program, ASP), Epilepsy Branch, National Institute of Neurological and Communicative Disorders and Stroke, National Institutes of Health in Rockville, MD, USA [23].

[7] = test system: mice; test: Subcutaneous pentylenetetrazole seizure test (ScPTZ, SCMET); format: in vivo; conditions: mice, ip, […]
Procedure: as §3

[8] = test system: mice; test: Formalin test (first screening); format: in vivo; conditions: 30.0 mg/kg, ip
Procedure: Formalin test. The first screening in doses 15 and 30 mg/kg was performed at the Jagiellonian University-Medical College. […] After 30 min, animals were injected with 20 μL of a 0.5% formalin solution into the plantar surface of the hind paw. The total time spent by animal licking or biting the injected paw was assessed for the following 40 min.

[9] = test system: mice; test: Formalin test (ETSP, area under the curve); format: in vivo; conditions: 20.0 mg/kg, ip
[10] = test system: rats; test: Sciatic nerve ligation (SNL) model, von Frey test; format: in vivo; conditions: ip
[11] = test system: mice; test: Tail immersion test (local anesthetic activity); format: in vivo
Procedure: The tail immersion test in mice. […] The method was performed by subcutaneous (sc) injection of the tested substance dissolved in saline, at a concentration range 0.06–2%, in a constant volume of 0.2 mL about 1 cm from the root of the mouse tail. Fifteen minutes later, the 3-cm distal part of the tail was immersed into temperature-controlled water (50 ± 0.5 °C). The reaction time (latency until the tail is pulled away) was measured by the means of a chronometer. In this assay the cut-off was 20 s [29].

[12] = test system: guinea pigs; test: Corneal anesthesia; format: in vivo
Procedure: A. Corneal anesthesia. […] The corneal reflex was examined by irritation of right eye conjunctiva (studied eye) and a left eye conjunctiva (control eye) by horsehair. The strength of local anesthetic activity was determined from the moment of solution instillation to the moment of reflex return. The presence or lack of corneal reflex were assessed. The eye conjunctiva irritation was done 6 times (every 5 s) with the interval of 5 min during the first 30 min [31].

[13] = test system: guinea pigs; test: Infiltration anesthesia (intradermal wheal test); format: in vivo
Procedure: A painful reaction to a prick of the skin at the centre of the wheal three times and every 5 s with 5 min intervals during the first 30 min of observation was tested. The experiment was continued to achieve a return of a reaction to the prick. The control wheal was done by an intradermal injection of 0.1 mL of 0.9% NaCl [25]. Local anesthesia was determined by calculating the ratio of the number of positive responses (no flinch) to the number of negative responses (flinch).

[14] = test system: murine astrocytes; test: MTT assay; format: cell-based
Procedure: Cells were seeded at a density of 1 × 10^4 cells per well in 96 well plates. […] Next, Crystal Dissolving Solution (Cayman) was added to each well.

[15] = test system: murine astrocytes; test: Crystal violet (CV) assay; format: cell-based
Procedure: CV assay. Cells were seeded at a density of 1 × 10^4 cells per well in 96-well plates.

[16] = test system: organotypic hippocampal slice cultures; test: Neuroprotection primary screen, excitotoxin NMDA; format: cell-based; conditions: NMDA 10 µM; 10 and 100 µM compound
Text: Gompound 1 : ADD Number: ItSot+ Batct: lE- Date Started:
Compound 2 : ADD Number: Froso Batct: le Date Completed i l|26-M ar -20 1 O […]
Excitotoxin: lNmoa lnsult Duration: la Uouo Solvent:
Primary Screen Results: ffi […]
Al lruuoa rolrr,| A2lr'rrr,tOa r Olrrr,t * --.- A3 lr'rnroa r oprvr + lsaoot+ t oplrl+aesogo iopM
BZ lr.rrr,ron ropr,t , -_-_-- 83 lluoa topt',r * jffi 1 4 t oopM.€sroso 1 oolrM la+eota tooptu*aasoeo roffi […]
The 'Primary screen Experiment" is a qualitative assessment of the ability of a compound to prevent excrtotoxic cell death. organotypic hippocampal slice cultures are treated *ltn r.i-."iivr-o-"spartate (NMDA) or kainic acad (KA) to induce neuronal cell death' Propidium iodide (Pl), a membrane-imper.eant cornpouna, is included in all wells of the culture plate.
Dying cells have compromised *]lT^"Toj*::, ttr. er rnJy oin "" into the cell, intercatate with DNA and fluoresce. Thus, the intensity of the Pl fluorescence is proportional to the amount of cell death in lhe individual itices. ttippocampat slice cullures are treated with the excitotoxin alone, or *i er. inoi"ui"o above, with the excitotoxin and either one -qf]bar-a Investigalional compounds at the concentrations indicated. lf neuroprotectron occurs as a consequence of the added […]
(§1) been treated with the excitotoxin alone.
(§2) (1 picture or pasted object on this page, not shown here)

[17] = test system: organotypic hippocampal slice cultures; test: Neuroprotection primary screen, excitotoxin kainic acid; format: cell-based; conditions: kainic acid 20 µM; 10 and 100 µM compound
Procedure: Compound 2 : ADD t{umber, b890s0 Batch: lB- Date Compteted. Ect\,t""201 0 […]
Excilotoxin: llGinic ncia Insult Duration: l+ Hours Solvent: […]
Ai lxn zopr.,r aZ lxa zopr,r Ae lre zoprta
Bz lr<n zopn er ]ra zopr',t l:+aot a r ooprt/|*aa9o8o l oopM lgaeota t oot,tr,t*gB9o8o t oopM […]
The "Primary screen Experiment" is a qualitative assessment of the ability of a compound to prevent excitotoxic cell dearh. organotypic hippocampal slice clltures are treated with N-methyl-D-aipartate lNuoa; o; kainic acid (KA) to induce neuronal cell death. Propidium iodide (Pl), a membrane-impermeant compound, is included in all welts of the culture plate.
Dying cells have compromised cell membranes, thus Pl may diffuse into the cell, intercalate with DNA and ftuoresce. Thus, the intensity of the Pl fluorescence is proportional to the amount of cell death in the individual slices. Hippocampal slice cultures are treated with the excitotoxin alone, or where indicated above, with the excitotoxin and either one eltu/o investigational compounds at the concentrations indicated. lf neuroprotection occurs as a consequence of the added […]
as §1, §2

[18] = test system: mice; conditions: mice
Procedure: as §3, §4

[19] = test system: rats; test: Rotarod / TOX (neurotoxicity); conditions: rats, ip
Procedure: as §3, §4

In the case of CC[C@H](CO)NCCOc1c(C)cccc1Cl.Cl [Compound 5a, R-(-)-2-((2-(2-chloro-6-methylphenoxy)ethyl)amino)butan-1-ol hydrochloride], the “MES PI” value [1] is reported as 10.15, the “MES TPE” value [1] is reported as 0.25 h and the “MES ED50” value ([1]; […]) is reported as 3.9 (2.1–6.2) mg/kg. For the same compound, the “6 Hz ED50” value ([2]; TPE 0.5 h, ip) was 52.49 (41.85–67.05) mg/kg, the “6 Hz TPE” value ([2]; ip) was 0.5 h and the “6 Hz TPE” value ([2]; po) was 0.25 h. For the same compound, the “Corneal kindling seizure score by Racine (0–5)” value [3] was 4.3, the “Hippocampal kindling TPE” value [4] was 0.25 h and the “Hippocampal kindling seizure score by Racine (0–5), Rat1” value ([4]; at 40 mg/kg) was 4. For the same compound, the “Hippocampal kindling seizure score by Racine (0–5), Rat2” value ([4]; at 40 mg/kg) was 0, the “Pilocarpine-induced status epilepticus prevention: result” value [5] was “no activity” and the “Rotarod TD50” value ([6]; ip) was 54.01 (35.70–64.23) mg/kg. For the same compound, the “Rotarod TPE” value ([6]; po) was 0.25 h, the “Rotarod TD50” value ([6]; po) was 322.33 (257.98–382.69) mg/kg and the “SCMET ED50” value [7] was > 70.00 mg/kg. For the same compound, the “% of effect (I phase)” value [8] was 19.4%, the “% of effect (II phase)” value [8] was 55.7% and the “Time of licking paw ± SEM (I phase)” value [8] was 72.3 ± 8.7 s. The “Time of licking paw ± SEM (II phase)” value [8] was 13.5 ± 5.4 s, the “Area under the curve, % of control (I phase)” value [9] was 76.5; t14 = 0.8847% and the “Area under the curve, % of control (II phase)” value [9] was 91.5; t14 = 0.5440%. The “SNL TPE” value ([10]; rat, in vivo) was 1 h, the “SNL: active at” value ([10]; rats, von Frey test) was 4 mg/kg and the “Prolongation of the time reaction” value ([11]; 0.031%) was 40.0%. For the same compound, the “Reaction time to painful stimulus” value ([11]; 0.031%) was 4.9 ± 0.9 s, the “Prolongation of the time reaction” value ([11]; 0.094%) was 57.1% and the “Reaction time to painful stimulus” value ([11]; 0.094%) was 5.5 ± 1.6 s. The “Prolongation of the time reaction” value ([11]; 0.125%) was 297.1%, the “Reaction time to painful stimulus” value ([11]; 0.125%) was 13.9 ± 1.8 s and the “Prolongation of the time reaction” value ([11]; 0.5%) was 434.3%. For the same compound, the “Reaction time to painful stimulus” value ([11]; 0.5%) was 18.7 ± 1.3 s, the “Prolongation of the time reaction” value ([11]; 2.0%) was 391.4% and the “Reaction time to painful stimulus” value ([11]; 2.0%) was 17.2 ± 1.9 s. The “Prolongation of the time reaction” value ([11]; […]) was 8.6%, the “Reaction time to painful stimulus” value ([11]; […]) was 3.8 ± 0.5 s and the “Inhibition of pain reaction” value ([12]; 0.125%, 5 min) was 46.67* %. For the same compound, the “Inhibition of pain reaction” value ([12]; 0.125%, 30 min) was 0%, the “Inhibition of pain reaction” value ([12]; 0.125%, 60 min) was 0% and the “Inhibition of pain reaction” value ([12]; 0.125%, 120 min) was 0%. For the same compound, the “Inhibition of pain reaction” value ([12]; 0.5%, 5 min) was 80.55*** %, the “Inhibition of pain reaction” value ([12]; 0.5%, 30 min) was 0% and the “Inhibition of pain reaction” value ([12]; 0.5%, 60 min) was 0%. For the same compound, the “Inhibition of pain reaction” value ([12]; 0.5%, 120 min) was 0%, the “Inhibition of pain reaction” value ([12]; […], 5 min) was 36.11* % and the “Inhibition of pain reaction” value ([12]; […], 30 min) was 0%. For the same compound, the “Inhibition of pain reaction” value ([12]; […], 60 min) was 0%, the “Inhibition of pain reaction” value ([12]; […], 120 min) was 0% and the “Inhibition of pain reaction” value ([13]; 0.125%, 5 min) was 83.33*** %. The “Inhibition of pain reaction” value ([13]; 0.125%, 30 min) was 44.44** %, the “Inhibition of pain reaction” value ([13]; 0.125%, 24 h) was 0% and the “Inhibition of pain reaction” value ([13]; 0.5%, 5 min) was 100*** %. For the same compound, the “Inhibition of pain reaction” value ([13]; 0.5%, 30 min) was 72.22*** %, the “Inhibition of pain reaction” value ([13]; 0.5%, 60 min) was 58.82** % and the “Inhibition of pain reaction” value ([13]; 0.5%, 120 min) was 52.94** %. The “Inhibition of pain reaction” value ([13]; 0.5%, 24 h) was 0%, the “Inhibition of pain reaction” value ([13]; […], 5 min) was 100*** % and the “Inhibition of pain reaction” value ([13]; […], 60 min) was 33.33* %. For the same compound, the “Inhibition of pain reaction” value ([13]; […], 240 min) was 16.67%, the “Inhibition of pain reaction” value ([13]; […], 24 h) was 0% and the “cytotoxic activity (MTT)” value [14] was “did not exhibit cytotoxic activity”. The “impact on proliferation (crystal violet)” value [15] was “did not exhibit cytotoxic activity and a notable impact on proliferation”, the “Test Result (neuroprotection)” value [16] was “No neuroprotection” and the “Test Result (neuroprotection)” value [17] was “No neuroprotection observed”. For the same compound, the “MES ED50” value ([18]; ip) was 19.78 (16.16–22.33) mg/kg, the “MES PI” value ([18]; po) was 5.03 and the “MES TPE” value ([18]; po) was 0.25 h. The “MES ED50” value ([18]; po) was 64.12 (52.15–75.37) mg/kg, the “Rotarod TPE” value [19] was 0.25 h and the “Rotarod TD50” value ([19]; […]) was 39.6 (36.2–78.3) mg/kg.
